From PubChem BioAssay AID248 (DTP/NCI, 2004)
Several values for one entry are separate records, joined by “and”; a condition that tells them apart may be missing. Equal entries are not always repeated. Toxic doses and inconclusive results are not listed. No stated cut-off is given here; in the data, active means T/C of 150% or more; inactive means T/C below 125%.

System: L1210 leukemia ip in BDF1 mice, survival T/C
Assay: NCI In Vivo Anticancer Drug Screen. Data for tumor model L1210 Leukemia (intraperitoneal) in B6D2F1 (BDF1) mice
Details: endpoint: mean survival time, higher = longer survival
Method in brief: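 Value reflects the ratio of survival in compound-treated mice to survival in vehicle-treated controls, with both groups carrying the same transplanted tumor.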

[1] = dose: 100.0 mg/kg/injection, schedule: Q01DX001 (ip), vehicle: saline with Tween-80
[2] = dose: 100.0 mg/kg/injection, schedule: Q04DX002 (ip), vehicle: saline with Tween-80
[3] = dose: 100.0 mg/kg/injection, schedule: Q04DX003 (ip), vehicle: saline with Tween-80
[4] = dose: 100.0 mg/kg/injection, schedule: Q04DX003 (ip), vehicle: saline
[5] = dose: 200.0 mg/kg/injection, schedule: Q04DX003 (ip), vehicle: saline
[6] = dose: 400.0 mg/kg/injection, schedule: Q04DX003 (ip), vehicle: saline
[7] = dose: 25.0 mg/kg/injection, schedule: Q04DX002 (ip), vehicle: saline with Tween-80
[8] = dose: 50.0 mg/kg/injection, schedule: Q04DX002 (ip), vehicle: saline with Tween-80
[9] = dose: 100.0 mg/kg/injection, schedule: Q01DX009 (ip), vehicle: saline
[10] = dose: 200.0 mg/kg/injection, schedule: Q01DX009 (ip), vehicle: saline
[11] = dose: 100.0 mg/kg/injection, schedule: Q01DX001 (ip), vehicle: carboxymethylcellulose (CMC)
[12] = dose: 200.0 mg/kg/injection, schedule: Q01DX001 (ip), vehicle: carboxymethylcellulose (CMC)
[13] = dose: 400.0 mg/kg/injection, schedule: Q01DX001 (ip), vehicle: carboxymethylcellulose (CMC)
[14] = dose: 100.0 mg/kg/injection, schedule: Q01DX009 (ip), vehicle: Klucel (hydroxypropylcellulose) (HPC)
[15] = dose: 200.0 mg/kg/injection, schedule: Q01DX009 (ip), vehicle: Klucel (hydroxypropylcellulose) (HPC)
[16] = dose: 400.0 mg/kg/injection, schedule: Q01DX009 (ip), vehicle: Klucel (hydroxypropylcellulose) (HPC)
[17] = dose: 15.0 mg/kg/injection, schedule: Q01DX Z (ip), vehicle: carboxymethylcellulose (CMC)
[18] = dose: 30.0 mg/kg/injection, schedule: Q01DX Z (ip), vehicle: carboxymethylcellulose (CMC)
[19] = dose: 100.0 mg/kg/injection, schedule: Q01DX001 (ip), vehicle: saline
[20] = dose: 200.0 mg/kg/injection, schedule: Q01DX001 (ip), vehicle: saline
[21] = dose: 400.0 mg/kg/injection, schedule: Q01DX001 (ip), vehicle: saline

Measured: T/C

CCOC(=O)c1ccc(NC(=O)c2ccc(Cl)c(Cl)c2)cc1
inactive: [1] 112 % of control | dose: 100.0 mg/kg/injection, schedule: Q01DX009 (ip), vehicle: saline with Tween-80 97 % of control | [2] 97 % of control and 91 % of control | [3] 104 % of control | dose: 200.0 mg/kg/injection, schedule: Q01DX001 (ip), vehicle: saline with Tween-80 115 % of control | dose: 200.0 mg/kg/injection, schedule: Q01DX009 (ip), vehicle: saline with Tween-80 93 % of control and 101 % of control | dose: 200.0 mg/kg/injection, schedule: Q04DX002 (ip), vehicle: saline with Tween-80 93 % of control and 87 % of control | dose: 200.0 mg/kg/injection, schedule: Q04DX003 (ip), vehicle: saline with Tween-80 108 % of control | dose: 400.0 mg/kg/injection, schedule: Q01DX001 (ip), vehicle: saline with Tween-80 93 % of control | dose: 400.0 mg/kg/injection, schedule: Q01DX009 (ip), vehicle: saline with Tween-80 103 % of control and 114 % of control | dose: 400.0 mg/kg/injection, schedule: Q04DX002 (ip), vehicle: saline with Tween-80 93 % of control and 92 % of control | dose: 400.0 mg/kg/injection, schedule: Q04DX003 (ip), vehicle: saline with Tween-80 97 % of control

CCC1c2ccc3cc(OC)ccc3c2CC1CC(=O)O (stereo not drawn)
inactive: [4] 92 % of control | [5] 92 % of control | [6] 86 % of control

NNCCO
inactive: dose: 25.0 mg/kg/injection, schedule: Q01DX009 (ip), vehicle: saline with Tween-80 97 % of control | [7] 94 % of control | dose: 50.0 mg/kg/injection, schedule: Q01DX009 (ip), vehicle: saline with Tween-80 106 % of control | [8] 105 % of control | [2] 106 % of control

NC(Cc1ccc(O)c(I)c1)C(=O)O (stereo not drawn)
inactive: [9] 96 % of control | [4] 101 % of control | [10] 98 % of control | [5] 93 % of control | [6] 100 % of control

OC1c2ccccc2CC1N1CCCCC1 (stereo not drawn)
inactive: [1] 97 % of control

CNC1CC2CCC1(C)C2(C)C (stereo not drawn)
inactive: dose: 100.0 mg/kg/injection, schedule: Q04DX002 (ip), vehicle: saline 96 % of control

O=[N+]([O-])c1cccc(N(c2ccccc2)c2ccccc2)c1
inactive: [11] 108 % of control | [12] 108 % of control | [13] 100 % of control

Nc1ccc(CCc2nc(N)nc(N)c2-c2ccc(Cl)cc2)cc1
inactive: dose: 100.0 mg/kg/injection, schedule: Q04DX003 (ip), vehicle: Klucel (hydroxypropylcellulose) (HPC) 106 % of control | dose: 200.0 mg/kg/injection, schedule: Q04DX003 (ip), vehicle: Klucel (hydroxypropylcellulose) (HPC) 104 % of control | dose: 400.0 mg/kg/injection, schedule: Q04DX003 (ip), vehicle: Klucel (hydroxypropylcellulose) (HPC) 101 % of control

O=[N+]([O-])c1cc([As](=O)(O)O)ccc1O
inactive: dose: 6.25 mg/kg/injection, schedule: Q04DX003 (ip), vehicle: saline 100 % of control | dose: 12.5 mg/kg/injection, schedule: Q04DX003 (ip), vehicle: saline 100 % of control | dose: 25.0 mg/kg/injection, schedule: Q04DX003 (ip), vehicle: saline 92 % of control and 100 % of control | dose: 50.0 mg/kg/injection, schedule: Q04DX003 (ip), vehicle: saline 106 % of control | [4] 105 % of control

COc1cc(CNC(=O)NCCCl)cc(OC)c1OC
inactive: dose: 100.0 mg/kg/injection, schedule: Q01DX001 (ip), vehicle: Klucel (hydroxypropylcellulose) (HPC) 96 % of control | [14] 94 % of control | dose: 200.0 mg/kg/injection, schedule: Q01DX001 (ip), vehicle: Klucel (hydroxypropylcellulose) (HPC) 88 % of control | [15] 95 % of control | dose: 400.0 mg/kg/injection, schedule: Q01DX001 (ip), vehicle: Klucel (hydroxypropylcellulose) (HPC) 98 % of control | [16] 90 % of control

OCC1OC(n2ccc3c(N4CCCCC4)ncnc32)C(O)C1O (stereo not drawn)
inactive: dose: 50.0 mg/kg/injection, schedule: Q01DX001 (ip), vehicle: carboxymethylcellulose (CMC) 93 % of control | [11] 95 % of control | [12] 98 % of control | [13] 93 % of control

CCCC(C=O)(CCN1CCCC1)c1cccc2ccccc12 (stereo not drawn)
inactive: [7] 100 % of control | [8] 94 % of control | [2] 88 % of control

CCCCCCC(/C=N/N=C(N)N)=N\N=C(N)N
inactive: [17] 100 % of control | dose: 15.0 mg/kg/injection, schedule: Q01DX Z (oral), vehicle: carboxymethylcellulose (CMC) 101 % of control | [18] 95 % of control | dose: 30.0 mg/kg/injection, schedule: Q01DX Z (oral), vehicle: carboxymethylcellulose (CMC) 93 % of control | dose: 60.0 mg/kg/injection, schedule: Q01DX Z (oral), vehicle: carboxymethylcellulose (CMC) 109 % of control

O=C(O)C1CCCCN1O (stereo not drawn)
inactive: [19] 102 % of control | [20] 104 % of control | [21] 104 % of control

O=C(Cc1ccccc1)Nc1cccc(Cl)c1
inactive: [14] 100 % of control | [15] 86 % of control | [16] 95 % of control

CCCCCCCCCCCC[N+]1(C)CC[N+](C)(CCCCCCCCCCCC)CC1 (stereo not drawn)
inactive: dose: 100.0 mg/kg/injection, schedule: Q04DX002 (ip), vehicle: other 105 % of control | dose: 200.0 mg/kg/injection, schedule: Q04DX002 (ip), vehicle: other 101 % of control

CN1CCN(Cn2cnc3c2c(=O)n(C)c(=O)n3C)CC1
inactive: dose: 75.0 mg/kg/injection, schedule: Q01DX001 (ip), vehicle: saline 92 % of control | dose: 150.0 mg/kg/injection, schedule: Q01DX001 (ip), vehicle: saline 100 % of control | dose: 300.0 mg/kg/injection, schedule: Q01DX001 (ip), vehicle: saline 122 % of control

CC1C(O)CN1C(C)(C)C (stereo not drawn)
inactive: [19] 105 % of control | [20] 106 % of control | [21] 108 % of control

COc1cc2c(cc1OC)C1(C(=O)c3ccc(OC)c(OC)c3C1=O)N(C(C)=O)C=C2 (stereo not drawn)
inactive: dose: 12.5 mg/kg/injection, schedule: Q01DX009 (ip), vehicle: Klucel (hydroxypropylcellulose) (HPC) 95 % of control | dose: 25.0 mg/kg/injection, schedule: Q01DX009 (ip), vehicle: Klucel (hydroxypropylcellulose) (HPC) 103 % of control | dose: 50.0 mg/kg/injection, schedule: Q01DX009 (ip), vehicle: Klucel (hydroxypropylcellulose) (HPC) 100 % of control

C[N+]12CN3CN(C1)S(=O)(=O)N(C3)C2
inactive: [9] 107 % of control | [4] 95 % of control | [10] 108 % of control | [5] 97 % of control | dose: 400.0 mg/kg/injection, schedule: Q01DX009 (ip), vehicle: saline 110 % of control | [6] 103 % of control

O=C(Nc1cccc(C2=NCCN2)c1)c1ccc2ccc(C(=O)Nc3cccc(C4=NCCN4)c3)cc2c1
inactive: [17] 111 % of control | [18] 102 % of control | dose: 60.0 mg/kg/injection, schedule: Q01DX Z (ip), vehicle: carboxymethylcellulose (CMC) 106 % of control | dose: 120.0 mg/kg/injection, schedule: Q01DX Z (ip), vehicle: carboxymethylcellulose (CMC) 113 % of control | dose: 125.0 mg/kg/injection, schedule: Q01DX Z (ip), vehicle: water 118 % of control

c1ccc(CN2CCn3nccc32)cc1
inactive: dose: 25.0 mg/kg/injection, schedule: Q01DX009 (ip), vehicle: other 104 % of control | dose: 50.0 mg/kg/injection, schedule: Q01DX009 (ip), vehicle: other 96 % of control | dose: 100.0 mg/kg/injection, schedule: Q01DX009 (ip), vehicle: other 104 % of control | dose: 200.0 mg/kg/injection, schedule: Q01DX009 (ip), vehicle: other 95 % of control

NC(=O)CN1C(=O)C2C3CCC(O3)C2C1=O (stereo not drawn)
inactive: dose: 25.0 mg/kg/injection, schedule: Q04DX003 (ip), vehicle: saline with Tween-80 89 % of control | dose: 50.0 mg/kg/injection, schedule: Q04DX003 (ip), vehicle: saline with Tween-80 89 % of control | [3] 96 % of control | [4] 107 % of control | [6] 95 % of control
